Source: patent US9163008B2, “Pyrimidines as sodium channel blockers” (Purdue Pharma, L.P., priority 2011, dated 2015)

The compounds below were run against human Nav1.7 (Homo sapiens (Human), UniProt Q15858) (assay: FLIPR sodium dye assay (CoroNa Green) with KCl and test article pre-incubation). Conditions: not given.
Format: cell-based

human Nav1.7, sequence (Q15858 other isoform, or with tags, fused parts or gaps): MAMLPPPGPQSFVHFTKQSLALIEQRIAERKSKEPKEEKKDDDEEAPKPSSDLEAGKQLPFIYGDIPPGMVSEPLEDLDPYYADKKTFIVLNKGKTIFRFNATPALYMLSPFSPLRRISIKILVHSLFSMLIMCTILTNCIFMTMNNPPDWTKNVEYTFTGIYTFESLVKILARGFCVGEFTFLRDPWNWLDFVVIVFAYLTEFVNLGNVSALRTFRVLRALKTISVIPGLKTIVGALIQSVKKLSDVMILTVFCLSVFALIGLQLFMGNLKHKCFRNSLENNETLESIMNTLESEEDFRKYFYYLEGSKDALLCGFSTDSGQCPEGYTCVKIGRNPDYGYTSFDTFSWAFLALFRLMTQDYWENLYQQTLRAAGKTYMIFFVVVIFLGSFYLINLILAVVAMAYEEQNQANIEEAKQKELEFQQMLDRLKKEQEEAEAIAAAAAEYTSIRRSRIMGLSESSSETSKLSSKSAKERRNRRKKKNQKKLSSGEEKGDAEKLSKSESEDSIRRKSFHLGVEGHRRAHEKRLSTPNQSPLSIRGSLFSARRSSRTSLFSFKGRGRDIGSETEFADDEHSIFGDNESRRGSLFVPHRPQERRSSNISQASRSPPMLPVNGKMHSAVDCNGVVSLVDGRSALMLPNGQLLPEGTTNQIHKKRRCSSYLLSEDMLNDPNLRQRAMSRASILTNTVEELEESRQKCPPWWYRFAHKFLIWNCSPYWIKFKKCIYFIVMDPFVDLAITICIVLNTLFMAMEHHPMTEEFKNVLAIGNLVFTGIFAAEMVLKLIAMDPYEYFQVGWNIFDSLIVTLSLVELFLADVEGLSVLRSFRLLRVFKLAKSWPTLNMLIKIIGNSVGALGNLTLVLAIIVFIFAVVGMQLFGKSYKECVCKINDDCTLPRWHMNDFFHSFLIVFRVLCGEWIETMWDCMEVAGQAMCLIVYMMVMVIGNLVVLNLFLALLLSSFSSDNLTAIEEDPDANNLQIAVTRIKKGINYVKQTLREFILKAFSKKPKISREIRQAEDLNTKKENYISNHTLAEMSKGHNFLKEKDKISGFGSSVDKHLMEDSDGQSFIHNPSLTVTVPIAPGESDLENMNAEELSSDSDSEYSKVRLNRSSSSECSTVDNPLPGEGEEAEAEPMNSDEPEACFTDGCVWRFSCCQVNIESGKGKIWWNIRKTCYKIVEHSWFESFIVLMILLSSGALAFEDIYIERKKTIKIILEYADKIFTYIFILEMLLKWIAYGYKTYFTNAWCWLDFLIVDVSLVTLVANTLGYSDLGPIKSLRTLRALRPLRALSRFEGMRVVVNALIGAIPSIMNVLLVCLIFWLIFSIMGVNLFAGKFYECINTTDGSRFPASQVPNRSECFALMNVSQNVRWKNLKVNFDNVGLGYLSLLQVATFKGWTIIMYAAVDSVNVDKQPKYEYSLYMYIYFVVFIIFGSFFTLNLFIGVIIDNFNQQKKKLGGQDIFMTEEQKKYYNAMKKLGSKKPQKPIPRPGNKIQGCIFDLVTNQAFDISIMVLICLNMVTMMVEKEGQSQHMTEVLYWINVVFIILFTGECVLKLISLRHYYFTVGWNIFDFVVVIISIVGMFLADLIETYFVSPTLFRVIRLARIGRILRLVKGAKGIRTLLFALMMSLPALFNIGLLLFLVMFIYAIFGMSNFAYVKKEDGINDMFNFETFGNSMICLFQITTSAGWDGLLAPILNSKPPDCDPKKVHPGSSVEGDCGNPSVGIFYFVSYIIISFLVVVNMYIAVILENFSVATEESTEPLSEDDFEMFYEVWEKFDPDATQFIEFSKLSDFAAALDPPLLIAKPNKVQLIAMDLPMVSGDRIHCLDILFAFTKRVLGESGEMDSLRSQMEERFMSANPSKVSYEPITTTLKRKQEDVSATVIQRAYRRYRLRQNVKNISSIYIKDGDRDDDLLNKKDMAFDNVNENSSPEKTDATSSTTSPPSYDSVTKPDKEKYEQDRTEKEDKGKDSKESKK

Row | Compound | IC50
1 | NC(=O)c1cc(N2CCCC(C(N)=O)C2)nc(-c2ccc(Oc3ccc(F)cc3)cc2)n1 (stereo not shown) [Cpd No. 24, 6-(3-carbamoylpiperidin-1-yl)-2-(4-(4-fluorophenoxy)phenyl)pyrimidine-4-carboxamide] | 10000 to 20000 nM

Same assay, conditions: read-out: Nav1.7 Activity FLIPR assay IC50

Row | Compound | IC50
2 | C[C@H](Nc1cc(C(N)=O)nc(-c2ccc(Oc3ccc(F)cc3)cc2)n1)C(N)=O [Cpd No. 1, (S)-6-((1-amino-1-oxopropan-2-yl)amino)-2-(4-(4-fluorophenoxy)phenyl)pyrimidine-4-carboxamide] | 420 nM
3 | NC(=O)c1cc(NC2(C(N)=O)CC2)nc(-c2ccc(Oc3ccc(F)cc3)cc2)n1 [Cpd No. 8, 6-((1-carbamoylcyclopropyl)amino)-2-(4-(4-fluorophenoxy)phenyl)pyrimidine-4-carboxamide] | 420 nM
4 | CCOC(=O)[C@@H]1Cc2ccccc2N1c1cc(C(N)=O)nc(-c2ccc(Oc3ccc(F)cc3)cc2)n1 [Cpd No. 16, (S)-ethyl 1-(6-carbamoyl-2-(4-(4-fluorophenoxy)phenyl)pyrimidin-4-yl) indoline-2-carboxylate] | > 20000 nM
5 | C[C@@H](C(N)=O)N(C)c1cc(C(N)=O)nc(-c2ccc(Oc3ccc(F)cc3)cc2)n1 [Cpd No. 20, (S)-6-((1-amino-1-oxopropan-2-yl)(methyl)amino)-2-(4-(4-fluorophenoxy)phenyl)pyrimidine-4-carboxamide] | 220 nM
6 | CC(Nc1cc(C(N)=O)nc(-c2ccc(Oc3ccc(F)cc3)cc2)n1)C(N)=O (stereo not shown) [Cpd No. 22, 6-((1-amino-1-oxopropan-2-yl)amino)-2-(4-(4-fluorophenoxy)phenyl)pyrimidine-4-carboxamide] | 550 nM
7 | CC(CC(N)=O)Nc1cc(C(N)=O)nc(-c2ccc(Oc3ccc(F)cc3)cc2)n1 (stereo not shown) [Cpd No. 23, 6-((4-amino-4-oxobutan-2-yl)amino)-2-(4-(4-fluorophenoxy)phenyl)pyrimidine-4-carboxamide] | 300 nM
8 | COC(=O)[C@H](C)Nc1cc(C(=O)O)nc(-c2ccc(Oc3ccc(F)cc3)cc2)n1 [Cpd No. 33, (S)-2-(4-(4-fluorophenoxy)phenyl)-6-((1-methoxy-1-oxopropan-2-yl)amino)pyrimidine-4-carboxylic acid] | 970 nM
9 | NC(=O)c1cc(N2CCNCC2CO)nc(-c2ccc(Oc3ccc(F)cc3)cc2)n1 (stereo not shown) [Cpd No. 48, 2-(4-(4-fluorophenoxy)phenyl)-6-(2-(hydroxymethyl)piperazin-1-yl)pyrimidine-4-carboxamide] | 170 nM
10 | C[C@H](Nc1cc(C(N)=O)nc(-c2ccc(O)cc2)n1)C(N)=O [Cpd No. 65, 6-((S)-1-Carbamoyl-ethylamino)-2-(4-hydroxy-phenyl)-pyrimidine-4-carboxylic acid amide] | > 20000 nM
11 | C[C@H](Nc1cc(C(N)=O)nc(Oc2ccc(C(F)(F)F)cc2-c2ccnnc2)n1)C(N)=O [Cpd No. 72, (S)-6-((1-amino-1-oxopropan-2-yl)amino)-2-(2-(pyridazin-4-yl)-4-(trifluoromethyl)phenoxy)pyrimidine-4-carboxamide] | 1420 nM
12 | NC(=O)c1cc(N2CCC[C@H]2C(N)=O)nc(-c2ccc(Oc3ccc(C(F)(F)F)cc3)cc2)n1 [Cpd No. 91, (S)-6-(2-carbamoylpyrrolidin-1-yl)-2-(4-(4-(trifluoromethyl)phenoxy)phenyl)pyrimidine-4-carboxamide] | 200 nM
13 | C[C@H](Nc1cc(C(N)=O)nc(N2CCC3(CC2)Cc2ccccc2C3)n1)C(N)=O [compound 73, (S)-6-((1-amino-1-oxopropan-2-yl)amino)-2-(1,3-dihydrospiro[indene-2,4′-piperidin]-1′-yl)pyrimidine-4-carboxamide] | 1800 nM
14 | NC(=O)c1cc(N2CCC[C@H]2C(N)=O)nc(-c2ccc(Oc3ccc(Cl)cc3F)cc2)n1 [compound 78, (S)-6-(2-carbamoylpyrrolidin-1-yl)-2-(4-(4-chloro-2-fluorophenoxy)phenyl)pyrimidine-4-carboxamide] | 120 nM

Same assay, conditions: recombinant human Nav1.7 in HEK293; veratridine and scorpion venom agonists; read-out: Nav1.7 Activity FLIPR assay IC50

Row | Compound | IC50
15 | NC(=O)CCNc1cc(C(N)=O)nc(-c2ccc(Oc3ccc(F)cc3)cc2)n1 [Cpd No. 19, 6-((3-amino-3-oxopropyl)amino)-2-(4-(4-fluorophenoxy)phenyl)pyrimidine-4-carboxamide] | > 20000 nM
16 | C[C@H](Nc1cc(C(N)=O)nc(-c2ccc(Oc3ccc(F)cc3)cc2)n1)C(=O)O [Cpd No. 28, (S)-2-((6-carbamoyl-2-(4-(4-fluorophenoxy)phenyl)pyrimidin-4-yl)amino)propanoic acid] | 10000 to 20000 nM
17 | O=C(O)c1cc(N2CCC[C@H]2C(=O)O)nc(-c2ccc(Oc3ccc(F)cc3)cc2)n1 [Cpd No. 29, (S)-6-(2-carboxypyrrolidin-1-yl)-2-(4-(4-fluorophenoxy)phenyl)pyrimidine-4-carboxylic acid] | > 20000 nM
18 | NC(=O)c1cc(N2CCC[C@H]2C(=O)O)nc(-c2ccc(Oc3ccc(F)cc3)cc2)n1 [Cpd No. 30, (S)-1-(6-carbamoyl-2-(4-(4-fluorophenoxy)phenyl)pyrimidin-4-yl)pyrrolidine-2-carboxylic acid] | > 20000 nM
19 | NC(=O)c1cc(N2c3ccccc3C[C@H]2C(=O)O)nc(-c2ccc(Oc3ccc(F)cc3)cc2)n1 [Cpd No. 31, (S)-1-(6-carbamoyl-2-(4-(4-fluorophenoxy)phenyl)pyrimidin-4-yl)indoline-2-carboxylic acid] | > 20000 nM
20 | C[C@H](Nc1cc(C(N)=O)nc(-c2ccc(Oc3ccc(C#N)cn3)cc2)n1)C(N)=O [Cpd No. 37, (S)-6-((1-amino-1-oxopropan-2-yl)amino)-2-(4-((5-cyanopyridin-2-yl)oxy)phenyl)pyrimidine-4-carboxamide] | 10000 to 20000 nM
21 | NC(=O)c1cc(NC[C@H](O)CO)nc(-c2ccc(Oc3ccc(F)cc3)cc2)n1 [Cpd No. 46, (S)-6-((2,3-dihydroxypropyl)amino)-2-(4-(4-fluorophenoxy)phenyl)pyrimidine-4-carboxamide] | > 20000 nM
22 | NC(=O)c1cc(NC[C@H](O)C(N)=O)nc(-c2ccc(Oc3ccc(F)cc3)cc2)n1 [Cpd No. 50, (S)-6-((3-amino-2-hydroxy-3-oxopropyl)amino)-2-(4-(4-fluorophenoxy)phenyl)pyrimidine-4-carboxamide] | > 20000 nM
23 | NC(=O)c1cc(NC[C@H](O)C(=O)O)nc(-c2ccc(Oc3ccc(F)cc3)cc2)n1 [Cpd No. 51, (S)-3-((6-carbamoyl-2-(4-(4-fluorophenoxy)phenyl)pyrimidin-4-yl)amino)-2-hydroxypropanoic acid] | > 20000 nM
24 | C[C@H](Nc1cc(C(N)=O)nc(-c2ccc(Oc3ccc(C#N)cc3)cc2)n1)C(N)=O [Cpd No. 66, 6-((S)-1-Carbamoyl-ethylamino)-2-[4-(4-cyano-phenoxy)-phenyl]-pyrimidine-4-carboxylic acid amide] | 410 nM
25 | C[C@H](Nc1cc(C(N)=O)nc(Oc2ccc(Cl)cc2-c2ccnc(N)c2)n1)C(N)=O [Cpd No. 67, (S)-6-((1-amino-1-oxopropan-2-yl)amino)-2-(2-(2-aminopyridin-4-yl)-4-chlorophenoxy)pyrimidine-4-carboxamide] | > 20000 nM
26 | C[C@H](Nc1cc(C(N)=O)nc(-c2ccnc(Oc3ccc(F)cc3)c2)n1)C(N)=O [Cpd No. 68, (S)-6-((1-amino-1-oxopropan-2-yl)amino)-2-(2-(4-fluorophenoxy)pyridin-4-yl)pyrimidine-4-carboxamide] | > 20000 nM
27 | C[C@H](Nc1cc(C(N)=O)nc(N2CCN(C(c3ccc(F)cc3)c3ccc(F)cc3)CC2)n1)C(N)=O [Cpd No. 71, (S)-6-((1-amino-1-oxopropan-2-yl)amino)-2-(4-(bis(4-fluorophenyl)methyl)piperazin-1-yl)pyrimidine-4-carboxamide] | > 20000 nM
28 | NC(=O)c1cc(N2c3ccccc3C[C@H]2C(N)=O)nc(-c2ccc(Oc3ccc(F)cc3)cc2)n1 [Example 36] | > 20000 nM
29 | C[C@H](Nc1cc(C(N)=O)nc(N2CCC(Oc3ccc(C#N)cc3)CC2)n1)C(N)=O [compound 100, (S)-6-((1-amino-1-oxopropan-2-yl)amino)-2-(4-(4-cyanophenoxy)piperidin-1-yl)pyrimidine-4-carboxamide] | 4570 nM

Each compound was assayed against hNav1.7 (Homo sapiens (Human), UniProt Q15858) (assay: Electrophysiology (EP) whole-cell patch clamp assay). Conditions: read-out: Nav1.7 Activity EP assay Ki.
Format: cell-based
Method: The hNav1.7 expressing HEK-293 cells were plated on 35 mm culture dishes pre-coated with poly-D-lysine in standard DMEM culture media (Mediatech, Inc., Herndon, Va.) and incubated in a 5% CO2 incubator at 37° C. Cultured cells were used approximately 12-48 h after plating.
On the day of experimentation, the 35 mm dish was placed on the stage of an inverted microscope equipped with a perfusion system that continuously perfuses the culture dish with fresh recording media. A gravity driven superfusion system was used to apply test solutions directly to the cell under evaluation. This system consists of an array of glass pipette glass connected to a motorized horizontal translator. The outlet of the shooter was positioned approximately 100 μm from the cell of interest.
Gigaseals were formed and the whole-cell configuration was established in voltage clamp mode, and membrane currents generated by hNav1.7 were recorded in gap-free mode. […] Signals were sampled at 50 kHz and low pass filtered at 3 kHz.
To determine a membrane potential at which the majority of channels are in the resting state, a standard steady-state inactivation (SSIN) protocol was run using 100 ms prepulses×10 mV depolarizing steps. The holding potential for testing resting block (Vh1) was 20 mV more hyperpolarized than the first potential where inactivation is observed with the inactivation protocol.
From this holding potential a standard I-V protocol was run to determine the potential at which the maximal current (Imax) was elicited. This potential was the test potential (Vt).
The fractional response was calculated as follows: FR=I(after drug)/I(control),
where I is the peak current amplitude and was used for estimating resting block dissociation constant, Kr: Kr=[drug]*{FR/(1−FR)},
To assess the block of inactivated channels the holding potential was depolarized such that 20-50% of the current amplitude was reduced when pulsed to the same Vt as above. The magnitude of this depolarization depends upon the initial current amplitude and the rate of current loss due to slow inactivation. This was the second holding potential (Vh2). The current reduction was recorded to determine the fraction of available channels at this potential (h). h=I@Vh2/Imax.
At this membrane voltage a proportion of channels are in the inactivated state, and thus inhibition by a blocker includes interaction with both resting and inactivated channels.
To determine the potency of the test compound on inactivated channels, a series of currents were elicited by 10 ms voltage steps from Vh2 to Vt every 10-15 seconds. After establishing a stable baseline, the low concentration of the compound was applied. Multiple cumulative concentrations may have to be applied to identify a concentration that will block between 40-60% of the current. Washout was attempted to re-establish baseline. Fractional responses were measured with respect to a projected baseline to determine Kapp. Kapp=[drug]*{FR/(1−FR)},
This Kapp value, along with the calculated Kr and h values, were used to calculate the affinity of the compound for the inactivated channels (Ki) using the following equation: Ki=(1−h)/((1/Kapp)−(h/Kr)).
Vehicle solution used to establish base line was also contacting 0.3% DMSO.
Data was analyzed off-line using Clampfit software (pClamp, v. 8; Axon Instruments) and graphed using GraphPad Prizm (v. 4.0 or higher) software.

hNav1.7, sequence (Q15858 other isoform, or with tags, fused parts or gaps): as above

Row | Compound | Ki
30 | C[C@H](Nc1cc(C(N)=O)nc(-c2ccc(Oc3ccc(F)cc3)cc2)n1)C(N)=O [Cpd No. 1, (S)-6-((1-amino-1-oxopropan-2-yl)amino)-2-(4-(4-fluorophenoxy)phenyl)pyrimidine-4-carboxamide] | 57 nM

Same assay, conditions: resting block dissociation constant; hNav1.7 HEK-293; read-out: Nav1.7 Activity EP assay Kr

Row | Compound | Kd
31 | C[C@H](Nc1cc(C(N)=O)nc(-c2ccc(Oc3ccc(F)cc3)cc2)n1)C(N)=O [Cpd No. 1, (S)-6-((1-amino-1-oxopropan-2-yl)amino)-2-(4-(4-fluorophenoxy)phenyl)pyrimidine-4-carboxamide] | 4220 nM
